Test [1] relates to Hedgehog pathway activation (GLi-luciferase reporter) in Shh Light II reporter cells. Description: Hedgehog pathway activation on Shh Light II reporter cells measured by luciferase activity. The class given is cell-based. As to conditions: Mus musculus, Shh Light II. The essentials: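 Shh Light II reporter cells carrying a hedgehog-responsive GLi-luciferase reporter were stimulated either with 500 nM SAG, a direct Smoothened agonist, or with conditioned media containing human Sonic Hedgehog (hShh). Test compounds were evaluated for blocking this pathway activation, quantified by luciferase activity. Cell viability was monitored in parallel with the Celltiter-Blue® assay.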

The subject of test [2] is Hedgehog pathway activation on 10T1/2/Smo#3 cells (C3H10T1/2 cells transfected with human Smoothened receptor). As to the kind of experiment: Hedgehog pathway activation on 10T1/2/Smo#3 cells measured by ALP activity. The class given is cell-based. The following applies: Mus musculus, C3H 10T1/2, 10T1/2/Smo#3 cells. The essentials: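 C3H10T1/2 cells stably expressing human Smoothened were activated with hShh-conditioned medium (10-20%) or 500 nM SAG, with test compounds present. Pathway block read as inhibited ALP activity (4-methylumbelliferyl phosphate fluorescence); viability checked by CellTiter-Blue. IC50 values reported.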

Setting [3] is: hShh activation, read-out: Shh (IC50, inhibition of Hedgehog pathway activation).
Where [4] appears, read: measured by ALP activity, read-out: ALP (IC50, inhibition of Hedgehog pathway activation).
Where [5] appears, read: SAG activation (500 nM SAG), read-out: Shh Light II luciferase activity (SAG activation).
Setting [6] is: hShh activation, read-out: Shh Light II luciferase activity (hShh activation).
Setting [7] is: hShh activation, ALP activity, read-out: 10T1/2/Smo#3 ALP activity (hShh Activation).

Read-outs that look alike come from different tables or passages of the source. A value given as a limit tells only on which side of the number the result lay.

For the compound `Cc1c(-c2ccccc2)nc2ccc(N3CCN(C(=O)NC4CCCCC4)CC3)nn12` [Example 159, N-cyclohexyl-4-(3-methyl-2-phenylimidazo[1,2-b]pyridazin-6-yl)piperazine-1-carboxamide], the figures for the IC50 in test [1] (setting [3]) and in test [2] (setting [4]) were 440 nM and 435 nM, respectively.
For `Cc1c(-c2ccccc2)nc2ccc(N3CCN(Cc4ccccn4)CC3)nn12` [Example 160, 3-methyl-2-phenyl-6-(4-(pyridin-2-ylmethyl)piperazin-1-yl)imidazo[1,2-b]pyridazine], the values for the IC50 in test [1] (setting [3]) and in test [2] (setting [4]) were 2510 nM and 627 nM, respectively.
With `Cc1c(-c2ccccc2)nc2ccc(N3CCN(Cc4cccnc4)CC3)nn12` [Example 161, 3-methyl-2-phenyl-6-(4-(pyridin-3-ylmethyl)piperazin-1-yl)imidazo[1,2-b]pyridazine], the IC50 was 300 to 3000 nM in test [1] (setting [5]); 911 nM in test [1] (setting [3]); 300 to 3000 nM in test [1] (setting [6]); 300 to 3000 nM in test [2] (setting [7]); 404 nM in test [2] (setting [4]).
Take `Cc1c(-c2ccccc2)nc2ccc(N3CCN(Cc4ccncc4)CC3)nn12` [Example 162, 3-methyl-2-phenyl-6-(4-(pyridin-4-ylmethyl)piperazin-1-yl)imidazo[1,2-b]pyridazine]: the IC50 in test [1] (setting [3]) was determined as 1400 nM; in test [2] (setting [4]), 1110 nM.
Consider `Cc1ccccc1CN1CCN(c2ccc3nc(-c4ccccc4)c(C)n3n2)CC1` [Example 163, 3-methyl-6-(4-(2-methylbenzyl)piperazin-1-yl)-2-phenylimidazo[1,2-b]pyridazine], for which the IC50 was 1060 nM in test [1] (setting [3]) and 1050 nM in test [2] (setting [4]).
For `Cc1c(-c2ccccc2)nc2ccc(N3CCN(Cc4ccc(F)cc4F)CC3)nn12` [Example 164, 6-(4-(2,4-difluorobenzyl)piperazin-1-yl)-3-methyl-2-phenylimidazo[1,2-b]pyridazine] the same measures were 463 nM and 550 nM.
As to `Cc1c(-c2ccccc2)nc2ccc(N3CCN(Cc4cccc(C(F)(F)F)c4)CC3)nn12` [Example 165, 3-methyl-2-phenyl-6-(4-(3-(trifluoromethyl)benzyl)piperazin-1-yl)imidazo[1,2-b]pyridazine], the results for the IC50 in test [1] (setting [3]) and in test [2] (setting [4]) were 890 nM and above 10000 nM, respectively.
`Cc1c(-c2ccccc2)nc2ccc(N3CCN(Cc4ccc(OC(F)(F)F)cc4)CC3)nn12` [Example 166, 3-methyl-2-phenyl-6-(4-(4-(trifluoromethoxy)benzyl)piperazin-1-yl)imidazo[1,2-b]pyridazine]: the values for the IC50 in test [1] (setting [3]) and in test [2] (setting [4]) were 995 nM and 1970 nM, respectively.
On to `Fc1ccc(CN2CCN(c3ccc4nc(-c5ccc(F)cc5)c(C5CC5)n4n3)CC2)cc1` [Example 167, 3-cyclopropyl-6-(4-(4-fluorobenzyl)piperazin-1-yl)-2-(4-fluorophenyl)imidazo[1,2-b]pyridazine], for which the IC50 in test [1] (setting [3]) was 2270 nM; in test [2] (setting [4]), above 10000 nM.
Turning to `Cc1c(-c2ccccc2)nc2ccc(NC3CCN(Cc4ccccc4)CC3)nn12` [Example 168, N-(1-benzylpiperidin-4-yl)-3-methyl-2-phenylimidazo[1,2-b]pyridazin-6-amine], the IC50 was 300 to 3000 nM in test [1] (setting [5]); 1920 nM in test [1] (setting [3]); 300 to 3000 nM in test [1] (setting [6]); 300 to 3000 nM in test [2] (setting [7]); 2980 nM in test [2] (setting [4]).
In the case of `CC(C)(C)C(=O)Nc1cc(-c2cn3nc(-c4ccncc4)ccc3n2)ccc1C(F)(F)F` [Example 169, N-(5-(6-(pyridin-4-yl)imidazo[1,2-b]pyridazin-2-yl)-2-(trifluoromethyl)phenyl)pivalamide], the IC50 in test [1] (setting [3]) is 710 nM; in test [2] (setting [4]), 423 nM.
On to `COc1ccc(-c2ccc3nc(-c4ccc(C(F)(F)F)c(NC(=O)C(C)(C)C)c4)cn3n2)cn1` [Example 170, N-(5-(6-(6-methoxypyridin-3-yl)imidazo[1,2-b]pyridazin-2-yl)-2-(trifluoromethyl)phenyl)pivalamide], for which the values for the IC50 in test [1] (setting [3]) and in test [2] (setting [4]) were 562 nM and 681 nM, respectively.
As for `CC(C)(C)C(=O)Nc1cc(-c2cn3nc(-c4ccccc4F)ccc3n2)ccc1C(F)(F)F` [Example 171, N-(5-(6-(2-fluorophenyl)imidazo[1,2-b]pyridazin-2-yl)-2-(trifluoromethyl)phenyl)pivalamide], the IC50 in test [1] (setting [3]) came out at 41 nM; in test [2] (setting [4]), 221 nM.
For the compound `COc1ccccc1-c1ccc2nc(-c3ccc(C(F)(F)F)c(NC(=O)C(C)(C)C)c3)cn2n1` [Example 172, N-(5-(6-(2-methoxyphenyl)imidazo[1,2-b]pyridazin-2-yl)-2-(trifluoromethyl)phenyl)pivalamide], the IC50 in test [1] (setting [3]) is 936 nM; in test [2] (setting [4]), 403 nM.
For the compound `CC(C)(C)C(=O)Nc1cc(-c2cn3nc(C#N)ccc3n2)ccc1C(F)(F)F` [Example 173, N-(5-(6-cyanoimidazo[1,2-b]pyridazin-2-yl)-2-(trifluoromethyl)phenyl)pivalamide], the IC50 is 3000 to 30000 nM in test [1] (setting [5]); 4400 nM in test [1] (setting [3]); 3000 to 30000 nM in test [1] (setting [6]); 3000 to 30000 nM in test [2] (setting [7]); 4430 nM in test [2] (setting [4]).
Regarding `CC(C)(C)C(=O)Nc1cc(-c2cn3nc(-c4ccc(F)nc4)ccc3n2)ccc1C(F)(F)F` [Example 174, N-(5-(6-(6-fluoropyridin-3-yl)imidazo[1,2-b]pyridazin-2-yl)-2-(trifluoromethyl)phenyl)pivalamide], the results for the IC50 in test [1] (setting [3]) and in test [2] (setting [4]) were 689 nM and 215 nM, respectively.
Regarding `COc1ncccc1-c1ccc2nc(-c3ccc(C(F)(F)F)c(NC(=O)C(C)(C)C)c3)cn2n1` [Example 175, N-(5-(6-(2-methoxypyridin-3-yl)imidazo[1,2-b]pyridazin-2-yl)-2-(trifluoromethyl)phenyl)pivalamide], the results for the IC50 in test [1] (setting [3]) and in test [2] (setting [4]) were 799 nM and 513 nM, respectively.
As to `CC(C)(C)C(=O)Nc1cc(-c2cn3nc(-c4cccnc4F)ccc3n2)ccc1C(F)(F)F` [Example 176, N-(5-(6-(2-fluoropyridin-3-yl)imidazo[1,2-b]pyridazin-2-yl)-2-(trifluoromethyl)phenyl)pivalamide], the IC50 in test [1] (setting [3]) stood at 79 nM; in test [2] (setting [4]), 97 nM.
On to `CC(C)(C)C(=O)Nc1cc(-c2cn3nc(-c4ccncc4F)ccc3n2)ccc1C(F)(F)F` [Example 177, N-(5-(6-(3-fluoropyridin-4-yl)imidazo[1,2-b]pyridazin-2-yl)-2-(trifluoromethyl)phenyl)pivalamide], for which the values for the IC50 in test [1] (setting [3]) and in test [2] (setting [4]) were 357 nM and 236 nM, respectively.
For `CC(C)(C)OC(=O)n1cccc1-c1ccc2nc(-c3ccc(C(F)(F)F)c(NC(=O)C(C)(C)C)c3)cn2n1` [Example 178, tert-butyl 2-(2-(3-pivalamido-4-(trifluoromethyl)phenyl)imidazo[1,2-b]pyridazin-6-yl)-1H-pyrrole-1-carboxylate] the same measures were 468 nM and 607 nM.
For the compound `CC(C)(C)C(=O)Nc1cc(-c2cn3nc(-c4ccc[nH]4)ccc3n2)ccc1C(F)(F)F` [Example 179, N-(5-(6-(1H-pyrrol-2-yl)imidazo[1,2-b]pyridazin-2-yl)-2-(trifluoromethyl)phenyl)pivalamide], the IC50 in test [1] (setting [3]) was 454 nM; in test [2] (setting [4]), 1440 nM.
`CC(C)(C)C(=O)Nc1cc(-c2cn3nc(C(N)=O)ccc3n2)ccc1C(F)(F)F` [Example 180, 2-(3-pivalamido-4-(trifluoromethyl)phenyl)imidazo[1,2-b]pyridazine-6-carboxamide]: the IC50 in test [1] (setting [5]) is 3000 to 30000 nM; in test [1] (setting [3]), 3880 nM; in test [1] (setting [6]), 3000 to 30000 nM; in test [2] (setting [7]) it was 3000 to 30000 nM; in test [2] (setting [4]), 5730 nM.
With `CC(C)Oc1ccc2nc(-c3ccc(C(F)(F)F)c(NC(=O)C(C)(C)C)c3)cn2n1` [Example 181, N-(5-(6-isopropoxyimidazo[1,2-b]pyridazin-2-yl)-2-(trifluoromethyl)phenyl)pivalamide], the IC50 in test [1] (setting [3]) came to 245 nM; in test [2] (setting [4]) it was 1070 nM.
Turning to `CC(C)(C)C(=O)Nc1cc(-c2cn3nc(OC4CCC4)ccc3n2)ccc1C(F)(F)F` [Example 182, N-(5-(6-cyclobutoxyimidazo[1,2-b]pyridazin-2-yl)-2-(trifluoromethyl)phenyl)pivalamide], the figures for the IC50 in test [1] (setting [3]) and in test [2] (setting [4]) were 1740 nM and 1860 nM, respectively.
For `CC(C)(C)C(=O)Nc1cc(-c2cn3nc(-c4ccc(F)cc4F)ccc3n2)ccc1C(F)(F)F` [Example 183, N-(5-(6-(2,4-difluorophenyl)imidazo[1,2-b]pyridazin-2-yl)-2-(trifluoromethyl)phenyl)pivalamide] the same measures were 327 nM and 995 nM.
For the compound `CC(C)(C)C(=O)Nc1cc(-c2cn3nc(-c4c(F)cccc4F)ccc3n2)ccc1C(F)(F)F` [Example 184, N-(5-(6-(2,6-difluorophenyl)imidazo[1,2-b]pyridazin-2-yl)-2-(trifluoromethyl)phenyl)pivalamide], the IC50 in test [1] (setting [3]) was 191 nM; in test [2] (setting [4]), 61 nM.
In the case of `CCOc1ccc2nc(-c3ccc(C(F)(F)F)c(NC(=O)C(C)C)c3)cn2n1` [Example 185, N-(5-(6-ethoxyimidazo[1,2-b]pyridazin-2-yl)-2-(trifluoromethyl)phenyl)isobutyramide], the IC50 in test [1] (setting [3]) came out at 1780 nM; in test [2] (setting [4]) it was 1670 nM.
